Experimental data published in ChEMBL document CHEMBL3124779, “Discovery of ABT-267, a pan-genotypic inhibitor of HCV NS5A” (J Med Chem, 2014).
≈ marks a conversion by molar mass, not a printed value.

Experiments:
[1] = test system: Hepatitis C virus; test: Ratio of EC50 for HCV1b Con1 infected in human HuH7 cells in presence of 40% human plasma to EC50 for HCV1b Con1 infected in human HuH7 cells in absence of 40% human plasma; format: functional, Hepacivirus hominis, isolate Con1, Huh-7
[2] = Clearance in rat at 3 mg/kg, iv; format: ADME, organism-based; parameters: dose 3 mg/kg, route intravenous; conditions: in vivo
[3] = Lipophilicity, log D of the compound at pH 7.4 by HPLC analysis; format: physicochemical; conditions: buffer
[4] = Oral bioavailability in rat at 3 mg/kg; format: ADME, organism-based; conditions: in vivo
[5] = test system: Hepatitis C virus; test: Antiviral activity against HCV1b Con1 infected in human HuH7 cells assessed as inhibition of viral replication after 4 days by luciferase reporter gene assay; format: functional, organism-based, Hepacivirus hominis; conditions: isolate Con1, Huh-7, 96 h
[6] = Metabolic stability in rat liver microsomes assessed as compound remaining after 30 mins; format: ADME; conditions: read-out: Stability
[7] = test system: Hepatitis C virus; test: Antiviral activity against HCV1a H77 infected in human HuH7 cells assessed as inhibition of viral replication after 4 days by luciferase reporter gene assay; format: functional, organism-based, Hepacivirus hominis; conditions: genotype 1a H77, Huh-7, 96 h
[8] = Cmax in rat at 3 mg/kg, po; format: ADME, organism-based; parameters: dose 3 mg/kg, route oral; conditions: in vivo
[9] = Kinetic solubility of the compound in 10 mM of phosphate buffer at pH 7.2 by CLND method; format: physicochemical; conditions: read-out: Kinetic_solubility
[10] = Tmax in rat at 3 mg/kg, po; format: ADME, organism-based; parameters: dose 3 mg/kg, route oral; conditions: in vivo
[11] = Metabolic stability in human liver microsomes assessed as compound remaining after 30 mins; format: ADME; conditions: read-out: Stability
[12] = AUC in rat at 3 mg/kg, po; format: ADME, organism-based; parameters: dose 3 mg/kg, route oral; conditions: plasma
[13] = test system: Hepatitis C virus; test: Antiviral activity against HCV1b Con1 infected in human HuH7 cells assessed as inhibition of viral replication after 4 days by luciferase reporter gene assay in presence of 40% human plasma; format: functional, organism-based, Hepacivirus hominis; conditions: isolate Con1, Huh-7, Plasma, 96 h
[14] = test system: Hepatitis C virus; test: Antiviral activity against HCV1a H77 infected in human HuH7 cells assessed as inhibition of viral replication after 4 days by luciferase reporter gene assay in presence of 40% human plasma; format: functional, organism-based, Hepacivirus hominis; conditions: genotype 1a H77, Huh-7, Plasma, 96 h
[15] = test system: Hepatitis C virus; test: Ratio of EC50 for HCV1a H77 infected in human HuH7 cells in presence of 40% human plasma to EC50 for HCV1a H77 infected in human HuH7 cells in absence of 40% human plasma; format: functional, Hepacivirus hominis, genotype 1a H77, Huh-7
[16] = Volume of distribution at steady state in rat at 3 mg/kg, iv; format: ADME, organism-based; parameters: dose 3 mg/kg, route intravenous; conditions: in vivo, read-out: Vdss
[17] = Half life in rat at 3 mg/kg, po; format: ADME, organism-based; parameters: dose 3 mg/kg, route oral; conditions: in vivo
[18] = Half life in rat at 3 mg/kg, iv; format: ADME, organism-based; parameters: dose 3 mg/kg, route intravenous; conditions: in vivo

| Compound | Ratio EC50 [1] | clearance [2] | logD [3] | bioavailability [4] | EC50 [5] | remaining at 0.5 h [6] | EC50 [7] | Cmax [8] | solubility kinetic [9] | Tmax [10] | remaining at 0.5 h [11] | AUC [12] | EC50 [13] | EC50 [14] | Ratio EC50 [15] | Vd [16] | half-life [17] | half-life [18] |
| --- | --- | --- | --- | --- | --- | --- | --- | --- | --- | --- | --- | --- | --- | --- | --- | --- | --- | --- |
| COC(=O)N[C@H](C(=O)N1CCC[C@H]1C(=O)Nc1ccc([C@@H]2CC[C@@H](c3ccc(NC(=O)[C@@H]4CCCN4C(=O)[C@@H](NC(=O)OC)C(C)(C)C)cc3)N2c2ccc(F)cc2)cc1)C(C)(C)C | 88 | < 6.5 mL/min/kg | 5.2 | 23% | 0.006 nM | 56% | 0.263 nM | 110 ng/mL | 4.4 µM (≈ 3.89 µg/mL) | 3 h | 52% | 1850 ng·h/mL | 0.528 nM | 15.5 nM | 59 |  |  |  |
| COC(=O)N[C@H](C(=O)N1CCC[C@H]1C(=O)Nc1ccc([C@@H]2CC[C@@H](c3ccc(NC(=O)[C@@H]4CCCN4C(=O)[C@@H](NC(=O)OC)[C@@H](C)OC)cc3)N2c2ccc(F)cc2)cc1)[C@@H](C)OC | 6 | 56.7 mL/min/kg | 3 | 14% | 0.086 nM | 47% | 0.168 nM | 70 ng/mL | 9.6 µM (≈ 8.52 µg/mL) | 0.7 h | 54% | 120 ng·h/mL | 0.539 nM | 1.4 nM | 8 | 1.3 L/kg | 1.1 h | 0.6 h |
| COC(=O)N[C@H](C(=O)N1CCC[C@H]1C(=O)Nc1ccc([C@H]2CC[C@H](c3ccc(NC(=O)[C@@H]4CCCN4C(=O)[C@@H](NC(=O)OC)[C@@H](C)OC)cc3)N2c2ccc(F)cc2)cc1)[C@@H](C)OC | 10 | 45 mL/min/kg | 3 | 15% | 0.134 nM | 46% | 0.794 nM | 120 ng/mL | 7.7 µM (≈ 6.84 µg/mL) | 0.5 h | 48% | 170 ng·h/mL | 1.33 nM | 1.95 nM | 2 | 0.9 L/kg | 0.9 h | 0.4 h |
| COC(=O)N[C@H](C(=O)N1CCC[C@H]1C(=O)Nc1ccc([C@@H]2CC[C@@H](c3ccc(NC(=O)[C@@H]4CCCN4C(=O)[C@@H](NC(=O)OC)[C@H]4CCOC4)cc3)N2c2ccc(F)cc2)cc1)[C@H]1CCOC1 | 24 | 31.7 mL/min/kg | 3.2 | 1.5% | 0.054 nM | 42% | 0.102 nM | 20 ng/mL | 9.7 µM (≈ 8.85 µg/mL) | 0.4 h | 41% | 20 ng·h/mL | 1.27 nM | 1.39 nM | 14 | 0.5 L/kg | 0.6 h | 0.9 h |
| COC(=O)N[C@H](C(=O)N1CCC[C@H]1C(=O)Nc1ccc([C@H]2CC[C@H](c3ccc(NC(=O)[C@@H]4CCCN4C(=O)[C@@H](NC(=O)OC)[C@H]4CCOC4)cc3)N2c2ccc(F)cc2)cc1)[C@H]1CCOC1 | 9 | 66.7 mL/min/kg | 3.2 | 3.2% | 0.106 nM | 46% | 0.281 nM | 30 ng/mL | 8.5 µM (≈ 7.75 µg/mL) | 0.3 h | 47% | 20 ng·h/mL | 0.917 nM | 1.92 nM | 7 | 1.5 L/kg | 0.5 h | 0.8 h |
| COC(=O)N[C@H](C(=O)N1CCC[C@H]1C(=O)Nc1ccc([C@H]2CC[C@H](c3ccc(NC(=O)[C@@H]4CCCN4C(=O)[C@@H](NC(=O)OC)C(C)C)cc3)N2c2ccc(C(C)(C)C)cc2)cc1)C(C)C | 10 | 7.17 mL/min/kg | 5.2 | 3.1% | 0.0088 nM | 65% | 0.138 nM | 20 ng/mL | 1.8 µM (≈ 1.61 µg/mL) | 4.7 h |  | 220 ng·h/mL | 0.09 nM | 0.986 nM | 7 | 2.2 L/kg | 8.6 h | 5.5 h |
| COC(=O)N[C@H](C(=O)N1CCC[C@H]1C(=O)Nc1ccc([C@@H]2CC[C@@H](c3ccc(NC(=O)[C@@H]4CCCN4C(=O)[C@@H](NC(=O)OC)C(C)(C)C)cc3)N2c2ccc(C(C)(C)C)cc2)cc1)C(C)(C)C |  | 2.83 mL/min/kg |  | 7.2% | 0.0022 nM | 87% | 0.021 nM | 90 ng/mL | 1.2 µM (≈ 1.11 µg/mL) | 5.3 h | 78% | 1250 ng·h/mL | 0.117 nM | 1.06 nM |  | 2.3 L/kg | 11 h | 8.2 h |
| COC(=O)N[C@H](C(=O)N1CCC[C@H]1C(=O)Nc1ccc([C@H]2CC[C@H](c3ccc(NC(=O)[C@@H]4CCCN4C(=O)[C@@H](NC(=O)OC)C(C)(C)C)cc3)N2c2ccc(C(C)(C)C)cc2)cc1)C(C)(C)C |  | 2.83 mL/min/kg |  | 7.2% | 0.0084 nM | 83% | 0.123 nM | 90 ng/mL | 2.2 µM (≈ 2.03 µg/mL) | 2.5 h | 80% | 1390 ng·h/mL | 0.344 nM | 4.31 nM |  | 1.7 L/kg | 12.4 h | 10.2 h |
| COC(=O)N[C@H](C(=O)N1CCC[C@H]1C(=O)Nc1ccc([C@@H]2CC[C@@H](c3ccc(NC(=O)[C@@H]4CCCN4C(=O)[C@@H](NC(=O)OC)C(C)C)cc3)N2c2ccc(F)cc2)cc1)C(C)C | 15 | 15 mL/min/kg | 4.6 | 22% | 0.012 nM | 49% | 0.396 nM | 190 ng/mL | 4.1 µM (≈ 3.51 µg/mL) | 1 h | 44% | 750 ng·h/mL | 0.184 nM | 3.68 nM | 9 | 2.4 L/kg | 3 h | 2.6 h |
| CC[C@H](C)[C@H](NC(=O)OC)C(=O)N1CCC[C@H]1C(=O)Nc1ccc([C@@H]2CC[C@@H](c3ccc(NC(=O)[C@@H]4CCCN4C(=O)[C@@H](NC(=O)OC)[C@@H](C)CC)cc3)N2c2ccc(F)cc2)cc1 (mixture of isomers) | 6 |  |  |  | 0.03 nM |  | 1.31 nM |  |  |  |  |  | 0.171 nM | 9.79 nM | 7 |  |  |  |
| COC(=O)N[C@H](C(=O)N1CCC[C@H]1C(=O)Nc1ccc([C@@H]2CC[C@@H](c3ccc(NC(=O)[C@@H]4CCCN4C(=O)[C@@H](NC(=O)OC)C(C)C)cc3)N2c2ccc(C)cc2)cc1)C(C)C (mixture of isomers) | 5 |  |  |  | 0.04 nM |  | 0.72 nM |  |  |  |  |  | 0.204 nM | 4.36 nM | 6 |  |  |  |
